Molecular target: T1, human Kv3.2 channels (hKv3.2) (Homo sapiens, UniProt Q96PR1)
T1 construct: expressed in transfected cells
T1 sequence (Q96PR1 1-638): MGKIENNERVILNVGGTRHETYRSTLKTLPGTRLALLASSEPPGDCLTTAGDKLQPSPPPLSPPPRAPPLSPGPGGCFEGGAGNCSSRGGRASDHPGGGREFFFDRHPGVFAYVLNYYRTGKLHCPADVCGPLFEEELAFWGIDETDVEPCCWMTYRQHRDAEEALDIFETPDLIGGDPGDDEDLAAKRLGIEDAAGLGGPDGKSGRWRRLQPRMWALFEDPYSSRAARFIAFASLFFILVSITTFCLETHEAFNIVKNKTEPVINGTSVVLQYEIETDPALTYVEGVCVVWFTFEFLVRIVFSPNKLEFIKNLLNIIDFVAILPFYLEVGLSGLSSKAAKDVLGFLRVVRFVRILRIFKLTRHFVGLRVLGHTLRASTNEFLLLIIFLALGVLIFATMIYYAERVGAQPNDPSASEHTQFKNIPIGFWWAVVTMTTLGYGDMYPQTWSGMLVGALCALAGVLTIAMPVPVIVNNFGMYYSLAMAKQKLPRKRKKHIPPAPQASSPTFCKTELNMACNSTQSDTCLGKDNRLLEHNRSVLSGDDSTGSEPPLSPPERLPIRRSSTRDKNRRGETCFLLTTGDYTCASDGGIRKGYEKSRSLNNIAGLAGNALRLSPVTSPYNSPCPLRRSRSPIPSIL
Assay: IonWorks Quattro electrophysiology, hKv3.2 currents, activation time constant (Tauact)
Type: cell-based
Conditions: hKv3.2, -15 mV pulse
Protocol: The ability of the compounds of the disclosure to modulate the voltage-gated potassium channel subtypes Kv3.2/3.1 may be determined using the following assay.
To assess compound effects on human Kv3.2 channels (hKv3.2), a stable cell line expressing hKv3.2 was created by transfecting Chinese Hamster Ovary (CHO)-K1 cells with a pCIH5-hKv3.2 vector. Cells were cultured in DMEM/F12 medium supplemented by 10% Foetal Bovine Serum, 1× non-essential amino acids (Invitrogen) and 500 ug/ml of Hygromycin-B (Invitrogen). Cells were grown and maintained at 37° C. in a humidified environment containing 5% CO2 in air.
The day of the experiment, cells were removed from the incubator and the culture medium removed. Cells were washed with 5 ml of Dulbecco's PBS (DPBS) calcium and magnesium free and detached by the addition of 3 ml Versene (Invitrogen, Italy) followed by a brief incubation at 37° C. for 5 minutes. The flask was tapped to dislodge cells and 10 ml of DPBS containing calcium and magnesium was added to prepare a cell suspension. The cell suspension was then placed into a 15 ml centrifuge tube and centrifuged for 2 min at 1200 rpm. After centrifugation, the supernatant was removed and the cell pellet re-suspended in 4 ml of DPBS containing calcium and magnesium using a 5 ml pipette to break up the pellet. Cell suspension volume was then corrected to give a cell concentration for the assay of approximately 3 million cells per ml.
Experiments were conducted at room temperature using IonWorks Quattro™ planar array electrophysiology technology (Molecular Devices Corp.) with PatchPlate™ PPC. Stimulation protocols and data acquisition were carried out using a microcomputer (Dell Pentium 4). Planar electrode hole resistances(Rp) were determined by applying a 10 mV voltage step across each well. These measurements were performed before cell addition. […] Following this, amphotericin-B solution was added to the intracellular face of the electrode to achieve intracellular access. Cells were held at −70 mV. Leak subtraction was conducted in all experiments by applying 50 ms hyperpolarizing (10 mV) prepulses to evoke leak currents followed by a 20 ms period at the holding potential before test pulses. From the holding potential of −70 mV, a first test pulse to −15 mV was applied for 100 ms and following a further 100 ms at −70 mV, a second pulse to 40 mV was applied for 50 ms. Cells were then maintained for a further 100 ms at −100 mV and then a voltage ramp from −100 mV to 40 mV was applied over 200 ms. In all experiments, the test pulses protocol was performed in the absence (pre-read) and presence (post-read) of the test compound. Pre- and post-reads were separated by the compound addition followed by a 3 minute incubation.
The intracellular solution contained the following (in mM): K-gluconate 100, KCl 54, MgCl2 3.2, HEPES 5, adjusted to pH 7.3 with KOH. Amphotericin-B solution was prepared as 50 mg/ml stock solution in DMSO and diluted to a final working concentration of 0.1 mg/ml in intracellular solution.
The final assay dilution was 200 and the final compound concentrations were in the range 50 μM to 50 nM.
The recordings were analysed and filtered using both seal resistance (>20 MΩ) and peak current amplitude (>500 pA at the voltage step of 40 mV) in the absence of compound to eliminate unsuitable cells from further analysis. Kv3 channel-mediated outward currents were measured determined from the mean amplitude of the current over the final 10 ms of the −15 mV voltage pulse minus the mean baseline current at −70 mV over a 10 ms period just prior to the −15 mV step. This Kv3 channel currents following addition of the test compound were then compared with the currents recorded prior to compound addition. […] The normalised data were analysed using ActivityBase or Excel software.

[1] = compound 3.1 μM (concentration giving ~0.3 nA current)
[2] = compound 0.4 μM (concentration giving ~0.3 nA current)
[3] = compound 1.6 μM (concentration giving ~0.3 nA current)
[4] = compound 0.8 μM (concentration giving ~0.3 nA current)

For `CCc1cc(Oc2ccc(N3C(=O)N[C@H](CC)C3=O)cn2)ccc1C#N`, the “Tauact mean” value [1] was 8.2 ms.
`CC1COc2cccc(Oc3ccc(N4C(=O)NC(C)(C)C4=O)cn3)c2C1` (single isomer, unassigned) [Example 25, 5,5-dimethyl-3-{6-[(3-methyl-3,4-dihydro-2H-chromen-5-yl)oxy]-3-pyridinyl}-2,4-imidazolidinedione] was tested, and the “Tauact mean” value (compound 6.25 μM (concentration giving ~0.3 nA current)) was 7.87 ms.
For `CC1(C)NC(=O)N(c2ccc(Oc3cccc4c3C3(CC3)CO4)nc2)C1=O` [Example 16, 5,5-dimethyl-3-[6-(spiro[1-benzofuran-3,1′-cyclopropan]-4-yloxy)-3-pyridinyl]-2,4-imidazolidinedione], the “Tauact mean” value [2] was 19.3 ms.
For `CC[C@@]1(C)NC(=O)N(c2cnc(Oc3ccc(C)c4c3C3(CC3)CO4)nc2)C1=O` [Example 51, (5R)-5-ethyl-5-methyl-3-[2-(7-methylspiro[2H-benzofuran-3,1′-cyclopropane]-4-yl)oxypyrimidin-5-yl]imidazolidine-2,4-dione], the “Tauact mean” value [3] was 21.3 ms.
For `CC[C@H]1NC(=O)N(c2cnc(Oc3ccc(C)c4c3C3(CC3)CO4)nc2)C1=O` [Example 61, (5R)-5-ethyl-3-[2-(7-methylspiro[2H-benzofuran-3,1′-cyclopropane]-4-yl)oxypyrimidin-5-yl]imidazolidine-2,4-dione], the “Tauact mean” value [4] was 31.5 ms.
`CC[C@H]1NC(=O)N(c2ccc(Oc3ccc(C)c4c3C3(CC3)CO4)nc2)C1=O` [Example 62, (5R)-5-ethyl-3-[6-(7-methylspiro[2H-benzofuran-3,1′-cyclopropane]-4-yl)oxy-3-pyridyl]imidazolidine-2,4-dione] was tested, and the “Tauact mean” value [2] was 34.8 ms.
For `CC[C@H]1NC(=O)N(c2ccc(Oc3ccc(C)c4c3C(C)(C)CO4)nc2)C1=O` [Example 63, (5R)-5-ethyl-3-{6-[(3,3,7-trimethyl-2,3-dihydro-1-benzofuran-4-yl)oxy]-3-pyridinyl}-2,4-imidazolidinedione], the “Tauact mean” value [2] was 28.0 ms.
In the case of `CC[C@H]1NC(=O)N(c2cnc(Oc3ccc(C)c4c3C(C)(C)CO4)nc2)C1=O` [Example 64, (5R)-5-ethyl-3-{2-[(3,3,7-trimethyl-2,3-dihydro-1-benzofuran-4-yl)oxy]-5-pyrimidinyl}-2,4-imidazolidinedione], the “Tauact mean” value [3] is reported as 25.0 ms.
In the case of `CC[C@@]1(C)NC(=O)N(c2ccc(Oc3ccc(C)c4c3C3(CC3)CO4)nc2)C1=O` [Example 65, (5R)-5-ethyl-5-methyl-3-[6-(7-methylspiro[2H-benzofuran-3,1′-cyclopropane]-4-yl)oxy-3-pyridyl]imidazolidine-2,4-dione], the “Tauact mean” value [4] is reported as 24.0 ms.
In the case of `CC[C@H]1NC(=O)N(c2ccc(Oc3ccc(C#N)cc3C(C)(C)C)nc2)C1=O` [RE3, 3-(1,1-dimethylethyl)-4-({5-[(4R)-4-ethyl-2,5-dioxo-1-imidazolidinyl]-2-pyridinyl}oxy)benzonitrile], the “Tauact mean” value (compound 0.2 μM (concentration giving ~0.3 nA current)) is reported as 23.0 ms.
With `CC[C@H]1NC(=O)N(c2ccc(Oc3ccc(C#N)c(C(C)C)c3)nc2)C1=O` [RE4, 4-({5-[(4R)-4-ethyl-2,5-dioxo-1-imidazolidinyl]-2-pyridinyl}oxy)-2-(1-methylethyl)benzonitrile] the “Tauact mean” value [4] was 9.2 ms.
For `CC[C@H]1NC(=O)N(c2ccc(Oc3ccc(C#N)cc3C3CC3)nc2)C1=O` [RE5, 3-cyclopropyl-4-({5-[(4R)-4-ethyl-2,5-dioxo-1-imidazolidinyl]-2-pyridinyl}oxy)benzonitrile], the “Tauact mean” value [1] was 13.0 ms.
In the case of `CC[C@H]1NC(=O)N(c2ccc(Oc3ccc(C#N)c(OC(F)(F)F)c3)nc2)C1=O` [RE7, 4-({5-[(4R)-4-ethyl-2,5-dioxo-1-imidazolidinyl]-2-pyridinyl}oxy)-2-[(trifluoromethyl)oxy]benzonitrile], the “Tauact mean” value [1] is reported as 10.4 ms.
In the case of `CC[C@H]1NC(=O)N(c2ccc(Oc3ccc(C#N)c(OC(C)C)c3)nc2)C1=O` [RE8, 4-({5-[(4R)-4-ethyl-2,5-dioxo-1-imidazolidinyl]-2-pyridinyl}oxy)-2-[(1-methylethyl)oxy]benzonitrile], the “Tauact mean” value [1] is reported as 9.7 ms.

From patent US11197859B2 (AUTIFONY THERAPEUTICS LIMITED, priority 2010, dated 2021)
